Among the data in PubChem BioAssay (NCI) are TGI and GI50 values, retold here.

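How tested: cells in 96-well plates exposed to compound for 48 hours at five concentrations. Here, GI50 denotes the concentration required for 50% inhibition of growth. TGI marks complete inhibition of growth.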 A value given as a limit tells only on which side of the number the result lay.

Among the test systems are LOX IMVI melanoma; COLO 205 colon; NCI-H460 lung; HOP-92 NSCLC; 786-0 renal; CAKI-1 renal; NCI-H522 lung; BT-549 breast; UACC-257 melanoma; HS 578T breast; MDA-MB-231 breast; SK-OV-3 ovarian; SN12C renal; SNB-19 CNS; A549 NSCLC; SF-539 CNS; T-47D breast.
What all share (assay): inhibition of tumour cell growth, NCI panel, 48 h

With `COc1ccccc1C(=O)c1c(NCc2ccccc2)c(=O)c1=O`, the TGI in the assay on LOX IMVI melanoma was greater than 100 µM; in the assay with COLO 205 colon, 98.7 µM; with NCI-H460 lung it was greater than 100 µM; with HOP-92 NSCLC, greater than 100 µM; in the assay on 786-0 renal it was greater than 100 µM; in the assay with CAKI-1 renal, greater than 100 µM. The TGI in the assay with NCI-H522 lung was 31.8 µM; in the assay on BT-549 breast, greater than 100 µM; with UACC-257 melanoma, greater than 100 µM; with HS 578T breast, greater than 100 µM; in the assay with MDA-MB-231 breast, greater than 100 µM; with SK-OV-3 ovarian it was greater than 100 µM. The TGI with SN12C renal and with SNB-19 CNS was greater than 100 µM throughout.
Turning to `Cc1cc2c([nH]c3ccccc32)c2c1OC(C)(C)C1C3CC(C)(C)Oc4c(C)cc5c6ccccc6n(c5c43)C21` (stereo unspecified), the TGI with A549 NSCLC, in the assay with LOX IMVI melanoma, in the assay with COLO 205 colon, with NCI-H460 lung, in the assay on HOP-92 NSCLC and with 786-0 renal was greater than 100 µM in each case. Also, the TGI in the assay on CAKI-1 renal, in the assay on NCI-H522 lung, in the assay on UACC-257 melanoma, in the assay on SK-OV-3 ovarian, in the assay on SF-539 CNS and in the assay on SN12C renal was greater than 100 µM each time. Besides, in the assay on SNB-19 CNS, the TGI was greater than 100 µM.
Turning to `CC(=O)c1cc2ccccc2oc1=O`, the TGI in the assay with A549 NSCLC, in the assay with LOX IMVI melanoma, in the assay on COLO 205 colon, in the assay on NCI-H460 lung, with HOP-92 NSCLC and in the assay on 786-0 renal was greater than 100 µM each time. The TGI in the assay with CAKI-1 renal, in the assay with NCI-H522 lung, with BT-549 breast, in the assay on UACC-257 melanoma, with HS 578T breast and with MDA-MB-231 breast was greater than 100 µM in each case. Also, the TGI in the assay on SF-539 CNS, with SN12C renal and in the assay with SNB-19 CNS was greater than 100 µM throughout.
For the compound `CC(=O)O[C@H]1C(=O)[C@@]2(C)C(C(OC(=O)c3ccccc3)C3[C@@H](O)C(OC(=O)[C@@H](O)[C@H](NC(=O)c4ccccc4)c4ccc(C(F)(F)F)cc4)C(C)=C1C3(C)C)[C@]1(OC(C)=O)CO[C@@H]1C[C@@H]2O` (stereo partly specified), the TGI with A549 NSCLC, in the assay on LOX IMVI melanoma, with COLO 205 colon, with NCI-H460 lung, with 786-0 renal and in the assay with CAKI-1 renal was greater than 25 µM each time. Also, the TGI in the assay on NCI-H522 lung was 21.1 µM; in the assay with UACC-257 melanoma, greater than 25 µM; in the assay on SK-OV-3 ovarian it was greater than 25 µM; in the assay on SF-539 CNS, greater than 25 µM; in the assay on SN12C renal, greater than 25 µM; in the assay on SNB-19 CNS it was greater than 25 µM.
On to `COc1ccc(/C=C2\CCC(C)C3=C2N=c2s/c(=C/c4cccc(Br)c4)c(=O)n2C3c2ccc(OC)c(OC)c2)cc1OC` (stereo unspecified), for which the TGI in the assay on A549 NSCLC, in the assay with LOX IMVI melanoma, with HOP-92 NSCLC, in the assay with 786-0 renal, in the assay with CAKI-1 renal and in the assay with UACC-257 melanoma was greater than 100 µM each time. For the same compound, the TGI in the assay with HS 578T breast, with MDA-MB-231 breast, with SK-OV-3 ovarian, in the assay on SN12C renal and in the assay with SNB-19 CNS was greater than 100 µM each time.
For `COc1cc(/C=c2\sc3n(c2=O)C(c2ccc(Cl)cc2)C2=C(CCCC2C)N=3)cc(OC)c1OC` (stereo unspecified), the TGI in the assay on A549 NSCLC, in the assay with LOX IMVI melanoma, in the assay on HOP-92 NSCLC, in the assay on 786-0 renal, with CAKI-1 renal and in the assay with UACC-257 melanoma was greater than 100 µM each time. Moreover, the TGI in the assay with HS 578T breast, with MDA-MB-231 breast, in the assay on SK-OV-3 ovarian, in the assay on SN12C renal and with SNB-19 CNS was greater than 100 µM each time.
`C=C(C)[C@@H]1CCC2=C[C@H](OC2=O)[C@@]2(C)C[C@@H]2C2=CC(C)=C(O2)[C@H]1O`: the TGI in the assay on A549 NSCLC, with T-47D breast, in the assay on LOX IMVI melanoma, with COLO 205 colon, with NCI-H460 lung and in the assay with HOP-92 NSCLC was greater than 75 µM in each case. Besides, the TGI with 786-0 renal is greater than 75 µM; in the assay on CAKI-1 renal, greater than 75 µM; in the assay on NCI-H522 lung, 48.2 µM; in the assay with UACC-257 melanoma it was greater than 75 µM; in the assay on MDA-MB-231 breast, greater than 75 µM; in the assay with SK-OV-3 ovarian it was greater than 75 µM. Moreover, the TGI in the assay on SF-539 CNS, in the assay with SN12C renal and in the assay with SNB-19 CNS was greater than 75 µM in each case.
Turning to `Cc1cc(S(=O)(=O)Nc2nc3ccccc3c(=O)n2N)c(S)cc1Cl`, the TGI with A549 NSCLC was greater than 100 µM; with LOX IMVI melanoma it was greater than 100 µM; in the assay with COLO 205 colon, greater than 100 µM; in the assay with NCI-H460 lung, greater than 100 µM; with 786-0 renal it was 81.6 µM; in the assay on CAKI-1 renal, greater than 100 µM. Besides, the TGI is 50.7 µM in the assay with NCI-H522 lung; greater than 100 µM in the assay with BT-549 breast; greater than 100 µM in the assay on UACC-257 melanoma; greater than 100 µM with MDA-MB-231 breast; greater than 100 µM in the assay with SK-OV-3 ovarian; greater than 100 µM in the assay on SF-539 CNS. For the same compound, the values for the TGI in the assay with SN12C renal and in the assay on SNB-19 CNS were greater than 100 µM and 47.2 µM, respectively. Also, the figures for the GI50 with NCI-H522 lung and in the assay on SNB-19 CNS were 19 µM and 15.7 µM, respectively.
Take `C=C1C2C[C@@H]3O[C@H]4C[C@H]5O[C@@]6(C[C@@H]7O[C@]8(C[C@H](C)[C@@H]9O[C@@H]%10CC(CO)O[C@@H]%10C[C@@H]9O8)C[C@H](C)[C@@H]7O6)C[C@H]5O[C@H]4[C@H](C)[C@H]3OC(=O)C[C@H]3CC[C@@H]4OC5[C@H]6O[C@]7(CC[C@H]8CC(=C)[C@H](CC[C@@H](C[C@H]1C)O2)O8)CC6O[C@@H]5[C@@H](O7)[C@H]4O3` (stereo partly specified): the TGI in the assay on A549 NSCLC was 0.408 µM; in the assay with LOX IMVI melanoma it was greater than 0.433 µM; in the assay on COLO 205 colon, 0.000322 µM; in the assay with HOP-92 NSCLC, greater than 1 µM; with 786-0 renal, greater than 0.413 µM; with CAKI-1 renal it was greater than 1 µM. Besides, the TGI is less than 0.0001 µM in the assay with NCI-H522 lung; less than 0.0001 µM in the assay on BT-549 breast; greater than 1 µM with UACC-257 melanoma; less than 0.0001 µM in the assay with HS 578T breast; greater than 1 µM in the assay on MDA-MB-231 breast; greater than 1 µM in the assay with SK-OV-3 ovarian. For the same compound, the TGI with SN12C renal and with SNB-19 CNS was greater than 1 µM throughout.
